US11767296B2, “Heteroaryl compounds as kinase inhibitor” (FUJIAN HAIXI PHARMACEUTICALS CO., LTD, priority 2018, dated 2023)

Assays:
CSF-1R = biological target: T1, CSF-1R (Homo sapiens, UniProt P07333); experiment: CSF-1R kinase assay (HTRF kinEASE TK); format: biochemical; conditions: ATP 2.5 uM, enzyme 0.012 ng/ul, read-out: In vitro inhibitory activity of CSF-1R IC50
T1 construct: purchased Invitrogen PV3249
Description: Example 53: CSF-1R Kinase Assay
I. Materials and Instruments
• 2104 EnVision® Multilabel Reader (PerkinElmer) • OptiPlate-384, White Opaque 384-well MicroPlate (Cat.6007290, PerkinElmer) • HTRF kinEASE TK (Cat.62TKOPEC, Cisbio) • CSF-1R(Cat. PV3249, Invitrogen) • ATP 10 mM (Cat. PV3227, Invitrogen) • DTT 1 M (Cat. D5545, Sigma) • MgCl2 1 M (Cat. M8266, Sigma) • MnCl2 1 M (Cat.244589. Sigma)
II. Experimental Procedure
Substrate-TK and ATP were diluted to 5 times of the reaction concentration by 1×Kinase Buffer. CSF1R enzyme was diluted to 5×enzyme solution by 1×kinase buffer. Sa-XL665 was diluted to 4×Sa-XL665 solution by Detection Buffer. 100×TK-Ab-Cryptate Solution TK-Ab-Cryptate was diluted to 100×TK-Ab-Cryptate solution by Detection Buffer. 2. Experimental Procedure After all reagents had been prepared according to the above method, except enzymes, the sample was added after equilibrium to room temperature. • a. Firstly, 2.5% DMSO solution was prepared by using 1×kinase buffer (the high concentration of DMSO will affect the reaction and control the final concentration of DMSO to 1%). Then the compounds were diluted by 2.5% DMSO solution corresponding to the enzyme. The screening concentration of the compounds was 4 times gradient dilution from 1000 nM, and 8 concentrations. In addition to the control pore, 4 microlitres of diluted solution containing 2.5% DMSO were added to the reaction pore and 4 microlitres of previously prepared solution containing 2.5% DMSO were added to the control pore. • b. 2 microlitres of previously prepared TK-biotin substrate solution was added to all reaction pore (the amount of substrate used for enzyme screening is shown in Table 15). • c. Adding 2 microlitres of CSF1R enzyme solution of corresponding concentration (the amount of enzyme is shown in Table 15) to all reaction pore except negative pore. The negative pore is supplemented with 2 microlitres of enzyme corresponding to 1 xkinase buffer. After mixing, the compound and enzyme can be fully combined by incubating at room temperature for 10 minutes. • d. Enzyme reaction was initiated by adding 2 microlitres ATP solution of corresponding concentration to all reaction pore. The reaction time was 30 minutes (the corresponding ATP concentration and reaction time at enzyme screening were shown in Table 15). • e. Preparing the test solution 5 minutes before the end of kinase reaction. Streptavidin-XL665 and TK antibody europium cryptate (1:100) were prepared with detection buffer in the kit (the corresponding concentration of detection reagent for enzyme screening is shown in Table 15). • f. After the kinase reaction, 5 microlitres of diluted Streptavidin-XL665 were added to all reaction pore, mixing, and then the diluted TK antibody europium cryptate solution was added immediately. • g. After 1 hour reaction at room temperature, the fluorescence signals (320 nm stimulation, 665 nm, 615 nm emission) were detected by ENVISION (Perkinelmer) instrument. The inhibition rate of each pore was calculated by full active pore and background signal pore, and the average value of complex pore was obtained. Meanwhile, the half inhibitory activity (IC50) of each compound was fitted by professional drawing analysis software PRISM 5.0. The Flow Chart of the Experiment is as Follows:
3. Data Analysis Emission Ratio (ER)=665 nm Emission signal/615 nm Emission signal Inhibitory rate=(ERpositive−ERsample)/(ERpositive−ERnegative)*100% Using Graphpad Prism 5 and log (inhibitor) vs. normalized response to fit IC50 curve and calculate IC50 value. The IC50 data of the compounds prepared in Representative Examples 3-52 are as follows (Table 18): […]

NFS-60 cells = experiment: NFS-60 cell assay (CCK proliferation, M-CSF stimulated); format: cell-based; conditions: Mus musculus, compound 0.5 uM, 72 h, 40 ng/mL M-CSF, read-out: inhibition ratio % (NFS-60 cell proliferation)
Description: Example 54: NFS-60 Cell Assay
1. Experimental Materials
Mouse Myelogenous Leukemia Cells (NFS-60)
Using DMSO to dissolve, and the required concentration was prepared with full culture medium without factors.
Penicillin-streptomycin: TRANS
Mouse M-CSF/CSF-1 Protein: Sino Biological Inc, No. 51112-MNAH
M-CSF: Qilu Pharmaceutical co., Ltd.
The logarithmic growth phase of NFS-60 cells (1640+10% FBS+40 ng/ml M-CSF+1% Penicillin-streptomycin) were centrifuged (1000 r/min) and cultured in a factor-free medium at 37° C., 5% CO2 for 24 hours. Centrifugating (1000 r/min), the culture medium was replaced by new culture medium including 40 ng/mL factors, and inoculated on 96-well plate by 2*10^4 cells/mL, 100 μL/hole. After 16 hours, the tested compounds were added 10 μL/hole, 3 duplicate holes per compound, 37° C., 5% CO2, continue to cultured for 72 h. Then 10 μL CCK reagent was added to each hole. After incubation for 4 hours, the absorbance of each hole was measured at 450 nm wavelength. According to Formula: Inhibitory rate (%)=(1-OD value of test pore/OD value of solvent control pore)×100% 3. Experimental Results The experimental results of the inhibition of NFS-60 cell proliferation by the compounds prepared in Example 3-52, 0.5 uM, are shown in the following table: […]

[1] = system: MC-38 transplanted tumors; experiment: Animal pharmacodynamics experiment: MC-38 transplanted tumors in C57 mice; format: in vivo; conditions: 2 weeks; for inhibition in vivo at 30 mg/kg: Mus musculus, MC-38, po, 336 h, compound alone, 30 mg/kg intragastrically daily, read-out: inhibition ratio (tumor size, MC-38 transplanted tumors); for inhibition ratio (tumor size, MC-38 transplanted tumors): compound 30 mg/kg intragastrically daily + anti-PD1 10 mg/kg i.p. once every 3 days
Description: Example 55: Animal Pharmacodynamics Experiment
In this study. MC-38 cell lines were inoculated in C57 mice
Experimental animal: C57 mice, male, 5-6 weeks old (18-22 g)
Inoculation: 2×10^6/0.1 mL, Matrigel is added in 3:1 ratio
PD1: InVivoMAb anti-mouse PD-1 (CD279). BioXCell
Group: On day 4 after inoculating, all the mice were divided into 13 groups, respectively model group, the anti-PD1 2 mg/kg group, anti-PD110 mg/kg group, testing compounds alone, and the tested compound combine with anti-PD1 10 mg/kg. Compounds were intragastrically administered daily at a dose of 30 mg/kg and anti-PD1 was intraperitoneally injected once every 3 days. The drug was administered continuously for 2 weeks. In model group, 80% glycerol+20% CMC-Na was given daily.
Results: The experimental results of anti-PD1 combined with the compounds prepared in the representative example 3-52 on the inhibition of tumor size of MC-38 transplanted tumors are as follows: […]

T1 sequence (P07333 20-972): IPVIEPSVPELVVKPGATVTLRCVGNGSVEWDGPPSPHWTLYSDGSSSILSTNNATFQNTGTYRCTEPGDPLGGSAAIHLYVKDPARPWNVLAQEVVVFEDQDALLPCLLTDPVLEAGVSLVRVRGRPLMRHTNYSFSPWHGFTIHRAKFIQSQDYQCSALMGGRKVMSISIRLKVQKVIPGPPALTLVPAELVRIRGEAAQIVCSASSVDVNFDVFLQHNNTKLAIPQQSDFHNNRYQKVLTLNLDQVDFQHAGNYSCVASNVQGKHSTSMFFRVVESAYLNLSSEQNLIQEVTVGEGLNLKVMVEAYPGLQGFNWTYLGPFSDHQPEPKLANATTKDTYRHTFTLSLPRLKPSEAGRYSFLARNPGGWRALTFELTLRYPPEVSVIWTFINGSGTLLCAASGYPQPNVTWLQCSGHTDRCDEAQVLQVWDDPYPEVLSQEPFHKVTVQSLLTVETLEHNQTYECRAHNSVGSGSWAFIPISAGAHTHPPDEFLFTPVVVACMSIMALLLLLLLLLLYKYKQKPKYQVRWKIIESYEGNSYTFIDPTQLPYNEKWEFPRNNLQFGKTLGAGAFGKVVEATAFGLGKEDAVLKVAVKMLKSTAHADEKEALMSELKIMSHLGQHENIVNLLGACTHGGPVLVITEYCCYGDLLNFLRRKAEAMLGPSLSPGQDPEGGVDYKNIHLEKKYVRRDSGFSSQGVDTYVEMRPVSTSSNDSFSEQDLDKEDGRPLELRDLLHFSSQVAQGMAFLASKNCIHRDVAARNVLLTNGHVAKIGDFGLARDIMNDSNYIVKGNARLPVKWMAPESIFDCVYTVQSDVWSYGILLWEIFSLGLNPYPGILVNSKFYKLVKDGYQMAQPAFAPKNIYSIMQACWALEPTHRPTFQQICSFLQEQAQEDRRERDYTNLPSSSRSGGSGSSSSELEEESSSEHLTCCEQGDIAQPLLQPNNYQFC

IC50 (CSF-1R)	SMILES	inhibition at 0.5 µM (NFS-60 cells)	inhibition in vivo at 30 mg/kg [1]	inhibition ratio (tumor size, MC-38 transplanted tumors) [1]
≤ 50 nM	CSc1cc(C(=O)Nc2cccc([C@@H](C)Oc3cc(-c4cnn(C)c4)cnc3N)c2)ccc1C [Compound 182, (R)-N-(3-(1-((2-amino-5-(1-methyl-1H-pyrazol-4-yl)pyridin-3-yl)oxy)ethyl)phenyl)-4-methyl-3-(methylthio)benzamide]	≥ 50%	10 to 30%	+++ (+++: ≥30%)
≤ 50 nM	Cc1ccc(C(=O)Nc2cccc([C@@H](C)Oc3cc(-c4cnn(C)c4)cnc3N)c2)cc1N(C)C [Compound 179, (R)-N-(3-(1-((2-amino-5-(1-methyl-1H-pyrazol-4-yl)pyridin-3-yl)oxy)ethyl)phenyl)-3-(dimethylamino)-4-methylbenzamide]	≥ 50%	10 to 30%	+++ (+++: ≥30%)
≤ 50 nM	Cc1cncc(C(=O)Nc2cccc([C@@H](C)Oc3cc(Cl)cnc3N)c2)c1 [Compound 83, (R)-N-(3-(1-((2-amino-5-chloropyridin-3-yl)oxy)ethyl)-phenyl)-5-methylnicotinamide]		< 10%	+++ (+++: ≥30%)
≤ 50 nM	Cc1cccc(C(=O)Nc2cccc([C@@H](C)Oc3cc(Cl)cnc3N)c2)c1 [Compound 72, (R)-N-(3-(1-((2-amino-5-chloropyridin-3-yl)oxy)ethyl)-phenyl)-3-methylbenzamide]	≥ 50%	< 10%	++ (++: 10%-30%)
≤ 50 nM	C[C@@H](Oc1cc(-c2cnn(C)c2)cnc1N)c1cccc(NC(=O)c2cccc(N(C)C)c2)c1 [Compound 178, (R)-N-(3-(1-((2-amino-5-(1-methyl-1H-pyrazol-4-yl)pyridin-3-yl)oxy)ethyl)phenyl)-3-(dimethylamino)benzamide]	≥ 50%	10 to 30%	+++ (+++: ≥30%)
≤ 50 nM	C[C@@H](Oc1cc(Cl)cnc1N)c1cccc(NC(=O)c2cccc(C3CC3)c2)c1 [Compound 86, (R)-N-(3-(1-((2-amino-5-chloropyridin-3-yl)oxy)ethyl)-phenyl)-3-cyclopropylbenzamide]		< 10%	+++ (+++: ≥30%)
